target: Glutamate receptors; NMDA/AMPA (Rattus norvegicus) (UniProt P35439+Q00959+Q00960+Q00961+Q62645+Q8VHN2+Q9R1M7+P19491+P19492+P19493+P19490); assay: Depolarizing activity relative to that of L-Glutamate (L-Glu=1) tested against mixed type(NMDA & AMPA) receptor in the newborn rat spinal motoneurone; format: protein-complex assay

Work on `O=C(O)[C@@H]1CCN[C@H]1C(=O)O` yielded a Relative Potency Ratio of 5.

target: Glutamate NMDA receptor (Rattus norvegicus) (UniProt P35439+Q00959+Q00960+Q00961+Q62645+Q8VHN2+Q9R1M7); assay: Depolarizing activity relative to that of L-Glutamate (L-Glu=1) tested against NMDA type receptor in the newborn rat spinal motoneurone; format: protein-complex assay

Point of comparison: `CN[C@H](CC(=O)O)C(=O)O`, Relative Potency Ratio 50. Against it:
- O=C(O)[C@H]1CCCN[C@@H]1C(=O)O (racemic) — lower, 20
- O=C(O)[C@H]1NCC[C@H]1C(=O)O — lower, 0.1
- O=C(O)[C@H]1NCCC[C@H]1C(=O)O — lower, 10
- O=C(O)[C@H]1CCN[C@H]1C(=O)O — lower, 3

From ChEMBL document CHEMBL1152071, “Synthesis and neurobiological actions of pyrrolidine-2,3-dicarboxylic acids (PRDA). Conformationally restricted analogues of L-aspartate” (Bioorg Med Chem Lett, 1994)
